Values quoted from earlier work as cited in patent US20240287015A1, “Method for Producing an Ionizable Lipid” (NanoVation Therapeutics Inc., priority 2021, published 2024).

Conditions: siRNA LNP formulations; MC3 relative to similar KC2-based formulations

CCCCC/C=C\C/C=C\CCCCCCCCC(CCCCCCCC/C=C\C/C=C\CCCCC)OC(=O)CCCN(C)C [MC3, (6Z,9Z,28Z,31Z)-heptatriacont-6,9,28,31-tetraene-19-yl 4-(dimethylamino)butanoate]
times less siRNA required than KC2 to attain the same end result: about 3 times
